Laboratory results: ChEMBL document CHEMBL1201862, “PubChem BioAssay data set” (2004)
The source made the active and inactive calls.

Columns and labels:
[1] = Shn3 3'UTR reporter inhibitors, dose response, cell-based, Clone20 osteoblasts, firefly luciferase, cherry-picked (AID 624132); assay type: functional;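 also: firefly luciferase luminescence from reporter carrying the Shn3 3'UTR in osteoblasts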
[2] = control 3'UTR Renilla luciferase suppression, dose response, counter-screen for Shn3 inhibitor project, cell-based, Clone20-Shn3RL, cherry-picked (AID 624133); assay type: functional
[3] = reduction of Shn3 3'UTR firefly luciferase signal, dose response, Schnurri-3 inhibitor project, cell-based, Clone20 osteoblasts, cherry-pick, set 2 (AID 720490); assay type: functional;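 also: actives lower the luminescence signal as inhibitors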
[4] = Luminescence Cell-Based Dose Response to Identify Activators of 5'UTR Stem-Loop Driven Prion Protein mRNA Translation in H4-C Neuroglioblastoma Cells. [Related pubchem assays: 1829 (Project Summary), 1814 (Primary HTS)]; assay type: functional
[5] = Luminescence Cell-Based Dose Response HTS to Identify Activators of Luciferase Translation or Activity in H4 […] Cells. [Related pubchem assays: 1829 (Project Summary), 1814 (Primary HTS)]; assay type: functional
[6] = Luminescence Cell-Based Dose Response to Identify Activators of Luciferase Translation or Activity in H4-C Neuroglioblastoma Cells. [Related pubchem assays: 1829 (Project Summary), 1814 (Primary HTS)]; assay type: functional
[7] = Luminescence Cell-Based Dose Confirmation to Identify Activators of 5'UTR Stem-Loop Driven Alpha-Synuclein mRNA Translation in H4 Neuroglioblastoma Cells. [Related pubchem assays: 1829 (Project Summary), 1814 (Primary HTS)]; assay type: functional
[8] = target: T1, Oxysterols receptor LXR-beta (Homo sapiens, UniProt P55055); assay type: functional, cell-based;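 also: Cell-based luminescence dose-response assay of agonist activity at LXR, run as a confirmatory counterscreen to a daf-12 agonist screen; agonist potency from rising luciferase signal of a Gal4-LXR reporter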
T1 sequence (P55055 whole entry): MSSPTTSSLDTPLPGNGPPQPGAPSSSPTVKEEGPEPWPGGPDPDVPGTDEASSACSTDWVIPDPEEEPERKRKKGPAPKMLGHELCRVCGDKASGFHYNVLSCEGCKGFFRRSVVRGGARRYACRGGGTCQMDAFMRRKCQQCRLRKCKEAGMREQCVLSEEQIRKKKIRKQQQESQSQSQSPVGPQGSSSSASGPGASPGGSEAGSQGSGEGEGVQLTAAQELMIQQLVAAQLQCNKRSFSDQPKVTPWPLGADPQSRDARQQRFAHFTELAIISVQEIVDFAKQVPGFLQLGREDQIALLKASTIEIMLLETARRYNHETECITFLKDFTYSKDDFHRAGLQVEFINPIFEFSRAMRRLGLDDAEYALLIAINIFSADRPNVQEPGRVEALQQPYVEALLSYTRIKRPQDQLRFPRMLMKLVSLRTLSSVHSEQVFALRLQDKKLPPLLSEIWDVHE

[9] = cells
[10] = target: Bifunctional protein GlmU (Mycobacterium tuberculosis, UniProt P9WMN3); assay: Inhibitors of Mycobacterial Glucosamine-1-phosphate acetyl transferase (GlmU). Secondary screen.; design: species or system Mycobacterium tuberculosis H37Rv
Bifunctional protein GlmU, sequence (P9WMN3 whole entry, the tested form may be a part): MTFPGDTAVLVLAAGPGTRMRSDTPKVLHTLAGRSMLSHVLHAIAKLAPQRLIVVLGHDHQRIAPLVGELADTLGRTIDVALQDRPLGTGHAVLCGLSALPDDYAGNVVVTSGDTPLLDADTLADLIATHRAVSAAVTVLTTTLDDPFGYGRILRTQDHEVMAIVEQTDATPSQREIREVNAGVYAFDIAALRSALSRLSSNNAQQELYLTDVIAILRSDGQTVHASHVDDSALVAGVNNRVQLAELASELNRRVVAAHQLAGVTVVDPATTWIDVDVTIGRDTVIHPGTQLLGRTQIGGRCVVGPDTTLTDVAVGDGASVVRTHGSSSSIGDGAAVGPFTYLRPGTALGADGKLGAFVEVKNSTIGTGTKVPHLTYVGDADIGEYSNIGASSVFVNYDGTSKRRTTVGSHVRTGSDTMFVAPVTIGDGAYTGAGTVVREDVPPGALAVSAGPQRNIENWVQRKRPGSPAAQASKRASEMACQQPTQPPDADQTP

[11] = target: T2, Carboxy-terminal domain RNA polymerase II polypeptide A small phosphatase 1 (Homo sapiens, UniProt Q9GZU7); assay: inhibitors of CTDSP1, concentration-response testing, biochemical assay, absorbance-based, actives from ultra-high-throughput screening (AID 540297); assay type: functional
T2 sequence (Q9GZU7 whole entry): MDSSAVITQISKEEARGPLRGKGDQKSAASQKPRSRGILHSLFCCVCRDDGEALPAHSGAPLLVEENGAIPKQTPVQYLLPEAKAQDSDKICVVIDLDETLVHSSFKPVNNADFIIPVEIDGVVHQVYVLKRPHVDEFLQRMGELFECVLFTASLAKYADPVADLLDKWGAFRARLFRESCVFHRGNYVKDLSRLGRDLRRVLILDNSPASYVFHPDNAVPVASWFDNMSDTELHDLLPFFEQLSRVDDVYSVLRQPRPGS

[12] = target: T3, Caspase-6 (Homo sapiens, UniProt P55212); assay: human caspase-6 inhibitors, dose response, biochemical, VEID-R110 fluorescence, cherry-pick (AID 720632)
T3 sequence (P55212 whole entry): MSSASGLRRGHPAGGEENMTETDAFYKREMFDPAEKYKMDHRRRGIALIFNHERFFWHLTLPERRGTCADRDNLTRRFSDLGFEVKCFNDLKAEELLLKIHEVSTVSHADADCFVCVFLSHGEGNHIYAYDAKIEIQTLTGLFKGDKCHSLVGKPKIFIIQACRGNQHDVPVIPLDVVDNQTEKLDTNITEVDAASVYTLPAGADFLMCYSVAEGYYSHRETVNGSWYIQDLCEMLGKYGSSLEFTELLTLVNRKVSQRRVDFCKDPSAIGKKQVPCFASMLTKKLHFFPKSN

[13] = target: Mitogen-activated protein kinase 10 (Homo sapiens, UniProt P53779); assay: Dose response biochemical screening assay for inhibitors of c-Jun N-Terminal Kinase 3 (JNK3). [Related pubchem assays: 746 ]
Mitogen-activated protein kinase 10, sequence (P53779 whole entry): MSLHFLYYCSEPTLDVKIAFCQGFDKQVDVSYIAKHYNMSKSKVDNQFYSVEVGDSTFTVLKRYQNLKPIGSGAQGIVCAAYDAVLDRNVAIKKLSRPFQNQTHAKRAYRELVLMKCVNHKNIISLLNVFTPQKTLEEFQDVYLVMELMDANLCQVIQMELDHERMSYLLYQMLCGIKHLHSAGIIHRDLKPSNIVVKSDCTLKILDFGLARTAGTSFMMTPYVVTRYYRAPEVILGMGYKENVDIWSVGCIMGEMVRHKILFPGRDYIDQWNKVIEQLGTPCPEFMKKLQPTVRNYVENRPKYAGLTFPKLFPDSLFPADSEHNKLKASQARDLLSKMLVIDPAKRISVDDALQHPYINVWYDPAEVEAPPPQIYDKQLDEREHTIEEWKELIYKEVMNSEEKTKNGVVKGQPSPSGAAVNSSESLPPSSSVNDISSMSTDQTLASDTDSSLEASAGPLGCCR

[14] = Luminescence-based cell-based high throughput dose response assay to identify activators of the DAF-12 from the parasite S. stercoralis (ssDAF-12).; assay type: functional
[15] = target: T1, Oxysterols receptor LXR-beta; assay: LXR agonists, Gal4 luciferase reporter, dose response, counter-screen for ssDAF-12 agonist project, cell-based, luminescence, HEK293, S. stercoralis campaign (AID 720737); assay type: functional; conditions: read-out: IC50 (the source's name)
[16] = inhibitors of intracellular T. cruzi replication, confirmation, NIH3T3 host cells, beta-gal luminescence (AID 2044); assay type: functional, cell-based;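 also: intracellular parasites grown in NIH/3T3 mouse fibroblasts as host cells; luminescent beta-galactosidase reporter signal from transgenic T. cruzi replicating inside host cells; inhibitors lower the luminescence signal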
[17] = cytotoxicity toward NIH3T3 fibroblasts, dose response, counter-screen, cell-based, ATP luminescence, mouse fibroblasts (AID 2010); assay type: functional;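 also: cells exposed to compound for about 90 hours before reading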
[18] = cells; remark: listed apart in the source
[19] = test system: HEK293; assay: inhibitors of LMP1-driven NF-kB reporter, dose response, cell-based, HEK293, luciferase, cherry-pick (AID 588343); assay type: functional; conditions: Homo sapiens
[20] = HepG2 cell cytotoxicity, dose response, cytotoxicity control for Shn3 inhibitor project, CellTiter-Glo, cherry-picked (AID 624134); assay type: functional, cell-based
[21] = cells; conditions: HEK293

For `CCOC(=O)C1CCCN(S(=O)(=O)c2ccc(S(=O)(=O)N3CCCC3)cc2)C1` (configuration not stated), the AC50 [1] was 0.821 µM (active), the AC50 [2] was 2.94 µM (active) and the AC50 [3] was 2.1 µM (active).

For `COc1ccc(-c2ccc(-c3nnn(CC(C)=O)n3)cc2)cc1`, the EC50 [4] was 0.521 µM (active), the EC50 [5] was < 0.1 µM (inconclusive) and the EC50 [6] was 0.257 µM (active). For the same compound, the EC50 [7] was 0.364 µM (active).

With `Cc1occc1C(=O)N=Nc1c(O)n(C)c2ccccc12` the EC50 [5] was 0.526 µM (active), the EC50 [8] was > 67.5 µM (inactive) and the EC50 [9] was > 67.5 µM (inactive).

For `O=C(O)c1ccc(N2C(=O)c3cccc4c(C(=O)O)ccc(c34)C2=O)cc1`, the IC50 [10] was 98.9 µM (active), the IC50 [11] was 3.53 µM (active) and the AC50 [12] was 7.17 µM (active).

For `O=C(CCn1cnc2ccccc2c1=O)Nc1ccc(S(=O)(=O)N2CCCC2)cc1`, the IC50 [13] was 38.2 µM (not active).

In the case of `COc1ccc(C(=N)NOC(=O)c2cccs2)cc1`, the IC50 [14] is reported as > 67.6 µM (inactive) and the EC50 [15] is reported as > 67.6 µM (inactive).

In the case of `Cc1ccc2c(CN3CCN(CCO)CC3)cc(=O)oc2c1C`, the EC50 [16] is reported as < 0.1 µM (active), the EC50 [17] is reported as > 60 µM (not active) and the EC50 [18] is reported as 0.019 µM (active).

In the case of `CCc1ccccc1NC(=O)COC(=O)c1c(C)nsc1NC`, the AC50 [19] is reported as 133 µM (active), the AC50 [1] is reported as 2.48 µM (active) and the AC50 [20] is reported as 64.7 µM (active). For the same compound, the AC50 [2] was 9.08 µM (active) and the AC50 [3] was 2.76 µM (active).

With `Cn1nc(-c2ccc(Cl)cc2)c2cc(C(=O)N3CCN(c4ccccc4)CC3)sc21` the AC50 [21] was > 52 µM (inactive).

In the case of `CC(C)(C)NC(=O)NC(=O)COc1ccc(Br)cc1Br`, the EC50 [8] is reported as > 67.5 µM (inactive) and the EC50 [9] is reported as > 67.5 µM (inactive).
